PMC9276531, “Hyaluronic acid–GPRC5C signalling promotes dormancy in haematopoietic stem cells” (Nature Cell Biology, 2022)

Experiments:
Type in all cases: cell-based
GPRC5C [1] = molecular target: T1, GPRC5C (Homo sapiens, UniProt Q9NQ84, N41L, form not given); assay: PRESTO-Tango beta-arrestin recruitment, luciferase; conditions: HTLA cells, putative N-glycosylation site mutant
T1 construct: GPRC5C-Tango plasmid, N-terminal Flag, PRESTO-Tango reporter fusion; transfected in HTLA or HEK293T cells
T1 sequence (Q9NQ84 12-429 N41L): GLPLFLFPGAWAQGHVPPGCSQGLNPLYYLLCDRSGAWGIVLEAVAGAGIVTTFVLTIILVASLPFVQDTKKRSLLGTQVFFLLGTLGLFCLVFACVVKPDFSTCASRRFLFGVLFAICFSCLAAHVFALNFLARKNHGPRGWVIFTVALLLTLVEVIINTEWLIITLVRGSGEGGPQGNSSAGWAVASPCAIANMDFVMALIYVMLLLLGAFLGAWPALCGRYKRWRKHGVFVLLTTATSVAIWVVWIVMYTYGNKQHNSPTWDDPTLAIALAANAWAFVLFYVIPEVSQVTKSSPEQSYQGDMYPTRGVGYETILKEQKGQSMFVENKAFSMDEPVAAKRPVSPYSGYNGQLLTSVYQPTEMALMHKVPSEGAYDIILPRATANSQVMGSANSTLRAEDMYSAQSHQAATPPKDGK

GPRC5C [2] = molecular target: T2, GPRC5C (Homo sapiens, UniProt Q9NQ84); assay: competition with HA-fluorescein on transfected HEK293T cells, flow cytometry; conditions: 100 uM NAG, 8 ug HA-fluorescein, 60 min, room temperature
T2 construct: GPRC5C-Tango plasmid, N-terminal Flag, PRESTO-Tango reporter fusion; transfected in HTLA or HEK293T cells
T2 sequence (Q9NQ84 24-441): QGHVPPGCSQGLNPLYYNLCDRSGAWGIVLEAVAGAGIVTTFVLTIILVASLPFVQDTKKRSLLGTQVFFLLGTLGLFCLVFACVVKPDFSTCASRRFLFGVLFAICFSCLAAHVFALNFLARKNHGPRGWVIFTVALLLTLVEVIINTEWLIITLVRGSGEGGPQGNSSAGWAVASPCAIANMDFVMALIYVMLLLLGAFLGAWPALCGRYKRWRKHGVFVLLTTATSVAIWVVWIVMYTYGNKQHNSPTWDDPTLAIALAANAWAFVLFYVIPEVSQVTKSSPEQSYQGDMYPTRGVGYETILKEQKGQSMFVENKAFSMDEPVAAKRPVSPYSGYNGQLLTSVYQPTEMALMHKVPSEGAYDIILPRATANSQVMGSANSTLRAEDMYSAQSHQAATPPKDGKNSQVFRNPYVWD

GPRC5C [3] = molecular target: T2, GPRC5C; assay: PRESTO-Tango beta-arrestin recruitment, luciferase; conditions: HTLA cells, 24 h, HEPES/HBSS pH 7.4

## CC(=O)N[C@H]1C(O)O[C@H](CO)[C@@H](O)[C@@H]1O (stereo partly drawn) [NAG, N-acetyl-D-glucosamine]
GPRC5C [1]
  concentration-response (agonist): dampened the luciferase response that was previously elicited by treatment with HA and NAG
GPRC5C [2]
  competition with HA-fluorescein on transfected HEK293T cells, flow cytometry: HA interaction with GPRC5C was reduced when NAG was present
GPRC5C [3]
  concentration-response (agonist): HA and NAG treatments led to a dose-dependent response
